Experimental data reported in PMC10683025, “Discovery of a Hydroxylamine-Based Brain-Penetrant EGFR Inhibitor for Metastatic Non-Small-Cell Lung Cancer” (Journal of Medicinal Chemistry, 2023).
Like-named read-outs stand apart in the source and are kept apart here.

Legend:
[1] = system: TA98; set-up: species or system Salmonella;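 as to Count (# of wells): Revertant-positive wells among 48 replicate wells per concentration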
Protocol: (§1) Compounds were assessed for mutagenicity at the Eurofins Panlabs in 384-well plates using four Salmonella strains: TA98, to probe for frameshift mutation (with quercetin as control), TA100 and TA1535, to probe for base pair insertions/deletions (with streptozotocin as control), and TA1537, to probe for frameshift mutations (with aminacridine as control) as previously described.[78] […] A concurrent bacterial cytotoxicity assay was run at 0.6, 1.2, 2.5, 5, 10, 25, 50, and 100 μM to rule out false negatives. Bacterial cytotoxicity was expressed as percent of control growth (OD650). Compounds with growth of less than 60% control were flagged and considered bacterial cytotoxic. […] Significances of the positive counts between the treatment and control were determined using a one-tailed Fisher’s exact test.

[2] = system: TA100; set-up: species or system Salmonella;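 as to Count (# of wells): Revertant-positive wells among 48 replicate wells per concentration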
Protocol: as §1

[3] = system: TA1535; assay: Background bacterial cytotoxicity assay; set-up: species or system Salmonella; key to Flag: A cytotoxicity value of less than 60% is flagged and the compound is considered as toxic (denoted as Cytox.); A hyphen (-) denotes no cytotoxicity at the respective concentration
Protocol: Compounds were assessed for mutagenicity at the Eurofins Panlabs in 384-well plates using four Salmonella strains: TA98, to probe for frameshift mutation (with quercetin as control), TA100 and TA1535, to probe for base pair insertions/deletions (with streptozotocin as control), and TA1537, to probe for frameshift mutations (with aminacridine as control) as previously described.[78] Each compound was incubated at 37 °C for 96 h at four different concentrations (5, 10, 50, and 100 μM), with each concentration tested using 48 replicates, both with and without rat liver S9 metabolic activation. A concurrent bacterial cytotoxicity assay was run at 0.6, 1.2, 2.5, 5, 10, 25, 50, and 100 μM to rule out false negatives. Bacterial cytotoxicity was expressed as percent of control growth (OD650). Compounds with growth of less than 60% control were flagged and considered bacterial cytotoxic. […] Significances of the positive counts between the treatment and control were determined using a one-tailed Fisher’s exact test.

[4] = Oral CNS pharmacokinetic assessment; assay type: in vivo, CD1 mice; settings: male, CD1, brain/plasma, Mouse 40 mg/kg (PO)
Protocol: Animal experiments were performed at Pharmaron, Inc. and animal use was approved by Pharmaron’s Institutional Animal Care and Use Committee (IACUC) in Pharmaron (Pharmaron IACUC, Protocol #PK-M-07182022, #PK-R-06012022, and #ON-CELL-XEN-06012022) following the guidance of AAALAC. Six- to eight-week-old male Sprague-Dawley rats (approximately 200–300 g) obtained from Si Bei Fu Laboratory Animal Technology Co., six- to eight-week-old male CD1 mice (approximately 20–30 g) obtained from Si Bei Fu Laboratory Animal Technology Co., and six- to eight-week-old female BALB/c nude mice (approximately 20–30 g) obtained from Si Bei Fu Laboratory Animal Technology Co., were used in the pharmacokinetic studies. Six- to eight-week-old female BALB/c nude mice (approximately 18–22 g) obtained from Beijing Anikeeper Biotech Co., Ltd. were used in the intracranial PDX study. […]
Oral CNS pharmacokinetic assessment of 9 was done by oral gavage (formulation: 1% methylcellulose) followed by blood and brain sampling at 7 time points (0.25, 0.5, 1, 2, 4, 8, 24 h post dose) with n = 3 animals per time point (n = 21 total). […] Concentrations of 9 in the plasma and brain samples were determined using LC-MS/MS and WinNonlin 8.3 (Phoenix) was used for pharmacokinetic calculations. […]

[5] = target: T1, BMPR2 (Homo sapiens, UniProt Q13873); assay: KINOMEScan; assay type: binding; settings: BMPR2, 1 µM; read-out: Percent Control
T1 construct: purchased Eurofins DiscoverX (KINOMEscan)
T1 sequence (Q13873 27-1038): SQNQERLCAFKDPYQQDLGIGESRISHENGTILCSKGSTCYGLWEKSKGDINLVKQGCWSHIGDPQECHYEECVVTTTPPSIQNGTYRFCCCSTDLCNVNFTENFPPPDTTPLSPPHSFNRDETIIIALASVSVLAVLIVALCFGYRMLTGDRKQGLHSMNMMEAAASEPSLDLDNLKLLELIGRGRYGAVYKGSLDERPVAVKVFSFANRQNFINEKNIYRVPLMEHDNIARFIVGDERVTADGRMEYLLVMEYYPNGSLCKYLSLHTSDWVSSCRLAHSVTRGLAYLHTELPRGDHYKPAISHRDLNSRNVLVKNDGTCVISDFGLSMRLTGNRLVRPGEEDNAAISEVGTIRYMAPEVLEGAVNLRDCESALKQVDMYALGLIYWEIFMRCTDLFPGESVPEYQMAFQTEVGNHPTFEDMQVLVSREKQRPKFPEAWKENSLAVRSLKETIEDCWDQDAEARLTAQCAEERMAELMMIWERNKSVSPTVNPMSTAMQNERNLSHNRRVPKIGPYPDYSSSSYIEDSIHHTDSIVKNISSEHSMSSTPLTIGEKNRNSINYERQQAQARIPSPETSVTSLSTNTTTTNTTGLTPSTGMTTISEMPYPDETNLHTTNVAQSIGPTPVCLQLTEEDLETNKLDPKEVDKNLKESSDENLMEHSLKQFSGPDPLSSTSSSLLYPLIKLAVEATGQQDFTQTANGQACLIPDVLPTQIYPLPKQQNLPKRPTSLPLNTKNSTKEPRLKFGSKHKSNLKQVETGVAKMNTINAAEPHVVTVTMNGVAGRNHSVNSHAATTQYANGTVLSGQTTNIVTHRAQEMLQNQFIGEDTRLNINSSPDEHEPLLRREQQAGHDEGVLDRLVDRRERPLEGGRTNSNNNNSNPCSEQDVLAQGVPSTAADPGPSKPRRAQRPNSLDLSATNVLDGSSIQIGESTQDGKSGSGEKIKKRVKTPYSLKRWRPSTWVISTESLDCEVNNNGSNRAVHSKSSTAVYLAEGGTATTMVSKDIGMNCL
Source text: Percent control was mapped onto the kinome tree using TREEspot.

COc1cc2ncnc(Nc3cccc(Cl)c3F)c2cc1OCCON1CCN(C)CC1 [Compound 9, N-(3-Chloro-2-fluorophenyl)-7-methoxy-6-(2-((4-methylpiperazin-1-yl)oxy)ethoxy)quinazolin-4-amine]
120.4%: Mean % Control (n = 3) ([3]; TA1535-S9, 1.2E-06 M)
99.4%: Mean % Control (n = 3) ([3]; TA1535-S9, 1.0E-05 M)
3: Count (# of wells) ([2]; TA100+S9, 1.0E-05 M) | Count (# of wells) ([2]; TA100+S9, 5.0E-06 M)
98.9%: Mean % Control (n = 3) ([3]; TA1535-S9, 6.0E-07 M)
108.1%: Mean % Control (n = 3) ([3]; TA1535-S9, 5.0E-06 M)
85.7%: Mean % Control (n = 3) ([3]; TA1535-S9, 5.0E-05 M)
-: Positive Significance (- to +++) ([1]; TA98+S9, 1.0E-04 M) | Positive Significance (- to +++) ([1]; TA98+S9, 1.0E-05 M) | Positive Significance (- to +++) ([1]; TA98+S9, 5.0E-05 M) | Positive Significance (- to +++) ([1]; TA98+S9, 5.0E-06 M) | Positive Significance (- to +++) ([1]; TA98-S9, 1.0E-04 M) | Positive Significance (- to +++) ([1]; TA98-S9, 1.0E-05 M) | Positive Significance (- to +++) ([1]; TA98-S9, 5.0E-05 M) | Positive Significance (- to +++) ([1]; TA98-S9, 5.0E-06 M) | Positive Significance (- to +++) ([2]; TA100+S9, 1.0E-04 M) | Positive Significance (- to +++) ([2]; TA100+S9, 1.0E-05 M) | Positive Significance (- to +++) ([2]; TA100+S9, 5.0E-05 M) | Positive Significance (- to +++) ([2]; TA100+S9, 5.0E-06 M) | Positive Significance (- to +++) ([2]; TA100-S9, 1.0E-04 M) | Positive Significance (- to +++) ([2]; TA100-S9, 1.0E-05 M) | Positive Significance (- to +++) ([2]; TA100-S9, 5.0E-05 M) | Positive Significance (- to +++) ([2]; TA100-S9, 5.0E-06 M) | Flag ([3]; TA1535-S9, 1.0E-04 M) | Flag ([3]; TA1535-S9, 1.0E-05 M) | Flag ([3]; TA1535-S9, 1.2E-06 M) | Flag ([3]; TA1535-S9, 2.5E-05 M) | Flag ([3]; TA1535-S9, 2.5E-06 M) | Flag ([3]; TA1535-S9, 5.0E-05 M) | Flag ([3]; TA1535-S9, 5.0E-06 M) | Flag ([3]; TA1535-S9, 6.0E-07 M)
0.45: Kp uu at 24 h ([4]; read-out: Kp,uu brain (AUCinf))
99%: remaining binding at 1 µM [5]
78.4%: Mean % Control (n = 3) ([3]; TA1535-S9, 1.0E-04 M)
2: Count (# of wells) ([1]; TA98+S9, 1.0E-05 M) | Count (# of wells) ([1]; TA98-S9, 5.0E-05 M)
101.2%: Mean % Control (n = 3) ([3]; TA1535-S9, 2.5E-06 M)
97.6%: Mean % Control (n = 3) ([3]; TA1535-S9, 2.5E-05 M)
0.77: Kp at 24 h ([4]; read-out: Kp brain (AUCinf))
0: Count (# of wells) ([1]; TA98+S9, 1.0E-04 M) | Count (# of wells) ([1]; TA98+S9, 5.0E-06 M) | Count (# of wells) ([1]; TA98-S9, 1.0E-04 M) | Count (# of wells) ([1]; TA98-S9, 1.0E-05 M) | Count (# of wells) ([1]; TA98-S9, 5.0E-06 M) | Count (# of wells) ([2]; TA100+S9, 1.0E-04 M) | Count (# of wells) ([2]; TA100+S9, 5.0E-05 M) | Count (# of wells) ([2]; TA100-S9, 1.0E-04 M) | Count (# of wells) ([2]; TA100-S9, 5.0E-05 M)
4: Count (# of wells) ([2]; TA100-S9, 1.0E-05 M)
1: Count (# of wells) ([1]; TA98+S9, 5.0E-05 M) | Count (# of wells) ([2]; TA100-S9, 5.0E-06 M)
